Results as given in patent US20260240644A1, “BIOPOLYMER-BASED TYMPANOSTOMY TUBES WITH PROGRAMMABLE, TUNABLE, AND ON-DEMAND DEGRADATION” (Trustees of Tufts College, priority 2023, published 2026).

Tested on: Xen29, a Staphylococcus aureus strain
Assay: Kirby Bauer disc diffusion assay of Ciprodex-loaded chitosan
Assay type: cell-based
Details: loaded in chitosan; growth inhibition of Xen29
Description: FIG. 27 depicts results of the Kirby Bauer disc diffusion assay.
To estimate the concentration of ciprofloxacin released by the chitosan, a standard curve was established using blank paper discs and known dilutions of Ciprodex.

For `O=C(O)c1cn(C2CC2)c2cc(N3CCNCC3)c(F)cc2c1=O` [Ciprofloxacin, ciprofloxacin], which “bioactivity of loaded Ciprofloxacin” value is on record?
The value was “maintained its bioactivity”.
